# Test system: CT26.WT tumors
# Assay: Anti-tumor efficacy of Compound 1 by IV and SC routes in the CT26.WT model (Example 8)
# Format: in vivo, mice
# Method: Female BALB/c mice were inoculated subcutaneously in the right flank with CT26.WT cells for tumor development. Six days after tumor inoculation, mice with tumor sizes ranging from 32-77 mm^3 (average tumor size 56 mm^3) were selected and assigned into 6 groups using stratified randomization with 8 mice per group based upon their tumor volumes. The treatments were started from the day of randomization (defined as D0), Group 1 was treated with Vehicle control, q.d.×5 days on (Mon-Fri)×4 cycles s.c.; Group 2 was treated with Compound 1, 0.7 mpk×5 days on (Mon-Fri)×4 cycles s.c.; Group 3 was treated with Compound 1, 1.4 mpk×5 days on (Mon-Fri)×4 cycles s.c.; Group 4 was treated with Compound 1, 4.5 mpk×3-days on (Mon, Wed, Fri)×4 cycles, iv; Group 5 was treated with Compound 1, 7 mpk×2-days on (Mon,Thu)×4 cycles, iv; Group 6 was treated with Compound 1, 14 mpk×1-day on (Mon)×4 cycles, iv. The tumor sizes were measured three times per week during the treatment. The entire study was terminated on D44 after start of the treatment. All treatments were well-tolerated without any adverse effects or significant body weight loss.
# [1] = Group 2, 0.7 mpk s.c. Mon-Fri x4 cycles
# [2] = Group 2, 0.7 mpk s.c. Mon-Fri x4 cycles, day 16
# [3] = Group 3, 1.4 mpk s.c. Mon-Fri x4 cycles
# [4] = Group 3, 1.4 mpk s.c. Mon-Fri x4 cycles, day 16
# [5] = Group 4, 4.5 mpk iv Mon,Wed,Fri x4 cycles
# [6] = Group 4, 4.5 mpk iv Mon,Wed,Fri x4 cycles, day 16
smiles,measurement,setting,value
"CC(=O)N[C@@H](Cc1c[nH]c2ccccc12)C(=O)N[C@@H](CCC(=O)C=[N+]=[N-])C(=O)OC(C)C [Compound 1, Isopropyl (S)-2-((S)-2-acetamido-3-(1H-indol-3-yl)propanamido)-6-diazo-5-oxohexanoate]",ILS,[1],86.1%
same,MST,[1],33.5 days
same,RTV at day 16,[1],4.45 ± 0.74
same,Tumor volume,"Group 2, 0.7 mpk s.c. Mon-Fri x4 cycles, day 0",56 ± 4 mm^3
same,Tumor volume,"Group 2, 0.7 mpk s.c. Mon-Fri x4 cycles, day 2",62 ± 7 mm^3
same,Tumor volume,"Group 2, 0.7 mpk s.c. Mon-Fri x4 cycles, day 4",89 ± 10 mm^3
same,Tumor volume,"Group 2, 0.7 mpk s.c. Mon-Fri x4 cycles, day 7",124 ± 20 mm^3
same,Tumor volume,"Group 2, 0.7 mpk s.c. Mon-Fri x4 cycles, day 9",140 ± 22 mm^3
same,Tumor volume,"Group 2, 0.7 mpk s.c. Mon-Fri x4 cycles, day 11",143 ± 21 mm^3
same,Tumor volume,"Group 2, 0.7 mpk s.c. Mon-Fri x4 cycles, day 14",261 ± 45 mm^3
same,T/C,[2],14.25%
same,TGI,[2],87.81%
same,Tumor volume,[2],259 ± 52 mm^3
same,Tumor volume,"Group 2, 0.7 mpk s.c. Mon-Fri x4 cycles, day 18",308 ± 63 mm^3
same,Tumor volume,"Group 2, 0.7 mpk s.c. Mon-Fri x4 cycles, day 21",407 ± 83 mm^3
same,Tumor volume,"Group 2, 0.7 mpk s.c. Mon-Fri x4 cycles, day 23",522 ± 102 mm^3
same,Tumor volume,"Group 2, 0.7 mpk s.c. Mon-Fri x4 cycles, day 25",648 ± 130 mm^3
same,Tumor volume,"Group 2, 0.7 mpk s.c. Mon-Fri x4 cycles, day 28",1030 ± 194 mm^3
same,Tumor volume,"Group 2, 0.7 mpk s.c. Mon-Fri x4 cycles, day 30",1585 ± 288 mm^3
same,ILS,[3],86.1%
same,MST,[3],33.5 days
same,RTV at day 16,[3],4.94 ± 0.82
same,Tumor volume,"Group 3, 1.4 mpk s.c. Mon-Fri x4 cycles, day 0",56 ± 5 mm^3
same,Tumor volume,"Group 3, 1.4 mpk s.c. Mon-Fri x4 cycles, day 2",55 ± 7 mm^3
same,Tumor volume,"Group 3, 1.4 mpk s.c. Mon-Fri x4 cycles, day 4",70 ± 8 mm^3
same,Tumor volume,"Group 3, 1.4 mpk s.c. Mon-Fri x4 cycles, day 7",107 ± 19 mm^3
same,Tumor volume,"Group 3, 1.4 mpk s.c. Mon-Fri x4 cycles, day 9",118 ± 21 mm^3
same,Tumor volume,"Group 3, 1.4 mpk s.c. Mon-Fri x4 cycles, day 11",150 ± 26 mm^3
same,Tumor volume,"Group 3, 1.4 mpk s.c. Mon-Fri x4 cycles, day 14",235 ± 35 mm^3
same,T/C,[4],15.82%
same,TGI,[4],86.45%
same,Tumor volume,[4],282 ± 52 mm^3
same,Tumor volume,"Group 3, 1.4 mpk s.c. Mon-Fri x4 cycles, day 18",292 ± 49 mm^3
same,Tumor volume,"Group 3, 1.4 mpk s.c. Mon-Fri x4 cycles, day 21",406 ± 85 mm^3
same,Tumor volume,"Group 3, 1.4 mpk s.c. Mon-Fri x4 cycles, day 23",484 ± 103 mm^3
same,Tumor volume,"Group 3, 1.4 mpk s.c. Mon-Fri x4 cycles, day 25",539 ± 119 mm^3
same,Tumor volume,"Group 3, 1.4 mpk s.c. Mon-Fri x4 cycles, day 28",853 ± 163 mm^3
same,Tumor volume,"Group 3, 1.4 mpk s.c. Mon-Fri x4 cycles, day 30",1372 ± 230 mm^3
same,ILS,[5],61.1%
same,MST,[5],29 days
same,RTV at day 16,[5],8.92 ± 1.58
same,Tumor volume,"Group 4, 4.5 mpk iv Mon,Wed,Fri x4 cycles, day 0",56 ± 3 mm^3
same,Tumor volume,"Group 4, 4.5 mpk iv Mon,Wed,Fri x4 cycles, day 2",70 ± 6 mm^3
same,Tumor volume,"Group 4, 4.5 mpk iv Mon,Wed,Fri x4 cycles, day 4",92 ± 11 mm^3
same,Tumor volume,"Group 4, 4.5 mpk iv Mon,Wed,Fri x4 cycles, day 7",126 ± 16 mm^3
same,Tumor volume,"Group 4, 4.5 mpk iv Mon,Wed,Fri x4 cycles, day 9",168 ± 24 mm^3
same,Tumor volume,"Group 4, 4.5 mpk iv Mon,Wed,Fri x4 cycles, day 11",223 ± 40 mm^3
same,Tumor volume,"Group 4, 4.5 mpk iv Mon,Wed,Fri x4 cycles, day 14",427 ± 73 mm^3
same,T/C,[6],28.57%
same,TGI,[6],73.09%
same,Tumor volume,[6],503 ± 94 mm^3
same,Tumor volume,"Group 4, 4.5 mpk iv Mon,Wed,Fri x4 cycles, day 18",648 ± 148 mm^3
same,Tumor volume,"Group 4, 4.5 mpk iv Mon,Wed,Fri x4 cycles, day 21",948 ± 230 mm^3

# Source: US20220117938A1, “COMBINATON THERAPY WITH A DON PRODRUG AND AN IMMUNE CHECKPOINT INHIBITOR” (DRACEN PHARMACEUTICALS, INC., priority 2019, published 2022)
